For data set [1] the following is noted: rcm bond, toluene.
Data set [2] addresses Recombinant human CD33 protein (Homo sapiens (Human), UniProt P20138). In words: CD33 competitive binding assay for HTS drug screen (fluorescent multivalent sialic acid probe). An outline of the steps: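 Inhibition was read as reduced retention of a fluorescent multivalent sialic acid complex (final 5 μM neutravidin, 15 μM A-375, 5 μM biotin-4-FITC) on plate-immobilized human CD33. Compound was added first, the probe followed for 30 min at room temperature in PBS with 0.2% Tween-20 and 0.5% BSA, and FITC was measured after a wash.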

Data set [3] concerns the target Recombinant Human Siglec-3/CD33 protein (His-CD33) (Homo sapiens (Human), UniProt P20138). Kind of data set: Differential scanning fluorimetry (DSF) thermal shift assay. Format: binding.
[4] abbreviates: difference in thermal melt of CD33 protein (0.5 μM) with 50 μM compound.
The mark [5] stands for this setting: thermal melt shift of 0.5 μM CD33 protein with 50 μM compound.

Molecules are shown by their SMILES. Read-outs that look alike come from different tables or passages of the source.

Chain of Recombinant Human Siglec-3/CD33 protein (His-CD33) (P20138 18-259): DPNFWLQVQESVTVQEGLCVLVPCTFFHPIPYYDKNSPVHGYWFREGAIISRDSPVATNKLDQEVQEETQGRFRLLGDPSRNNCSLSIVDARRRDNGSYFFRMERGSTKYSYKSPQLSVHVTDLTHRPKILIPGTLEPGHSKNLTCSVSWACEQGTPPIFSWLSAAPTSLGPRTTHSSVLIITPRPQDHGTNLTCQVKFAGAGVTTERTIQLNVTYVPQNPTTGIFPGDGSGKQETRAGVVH
Chain of Recombinant human CD33 protein (P20138 18-259): as above

In data set [1] (from C=CCOC[C@H](COCCCOc1c(C)cc(C(=O)NC[C@@H](OC(C)=O)[C@@H](OC(C)=O)[C@@H]2O[C@@](CC=C)(C(=O)OC)C[C@H](OC(C)=O)[C@H]2NC(=O)OC(C)(C)C)cc1C)NC(=O)C1CCCOC1, 25-membered ring, Hoveyda-Grubbs II/quinone, 1.04 mM, 90.0 °C, 24.0 h), `COC(=O)[C@]12CC=CCOC[C@@H](NC(=O)C3CCCOC3)COCCCOc3c(C)cc(cc3C)C(=O)NC[C@@H](OC(C)=O)[C@@H](OC(C)=O)[C@H](O1)[C@H](NC(=O)OC(C)(C)C)[C@@H](OC(C)=O)C2` (stereo partly drawn) had a ring closure, isolated yield of 76%.
`CC(=O)O[C@H]1[C@@H]2O[C@](C(=O)OCc3ccccc3)(CC=CCOC[C@@H](C)C(=O)NCCCOc3c(C)cc(cc3C)C(=O)NC[C@H]1OC(C)=O)C[C@H](OC(C)=O)[C@H]2NC(=O)OC(C)(C)C` returned a ring closure, isolated yield in data set [1] (from C=CCOC[C@@H](C)C(=O)NCCCOc1c(C)cc(C(=O)NC[C@@H](OC(C)=O)[C@@H](OC(C)=O)[C@@H]2O[C@@](CC=C)(C(=O)OCc3ccccc3)C[C@H](OC(C)=O)[C@H]2NC(=O)OC(C)(C)C)cc1C, 25-membered ring, Hoveyda-Grubbs II (10 mol%)/1,4-benzoquinone, 1.52 mM, 80.0 °C, 1.0 h) of 47%.
Consider `COC(=O)[C@]12CC=CCOC[C@H]3C[C@H](CN3C(=O)C3CCCOC3)OCCOc3c(C)cc(cc3C)C(=O)NC[C@@H](OC(C)=O)[C@@H](OC(C)=O)[C@H](O1)[C@H](NC(=O)OC(C)(C)C)[C@@H](OC(C)=O)C2` (stereo partly drawn), for which the ring closure, isolated yield in data set [1] (from C=CCOC[C@H]1C[C@@H](OCCOc2c(C)cc(C(=O)NC[C@@H](OC(C)=O)[C@@H](OC(C)=O)[C@@H]3O[C@@](CC=C)(C(=O)OC)C[C@H](OC(C)=O)[C@H]3NC(=O)OC(C)(C)C)cc2C)CN1C(=O)C1CCCOC1, 25-membered ring, Hoveyda-Grubbs II/quinone, 1.03 mM, 90.0 °C, 24.0 h) is 64%.
`CC(=O)O[C@H]1[C@@H]2O[C@](C(=O)OCc3ccccc3)(CC=CCCCCC(=O)NCCCOc3c(C)cc(cc3C)C(=O)NC[C@H]1OC(C)=O)C[C@H](OC(C)=O)[C@H]2NC(=O)OC(C)(C)C`: the ring closure, isolated yield in data set [1] (from C=CCCCCC(=O)NCCCOc1c(C)cc(C(=O)NC[C@@H](OC(C)=O)[C@@H](OC(C)=O)[C@@H]2O[C@@](CC=C)(C(=O)OCc3ccccc3)C[C@H](OC(C)=O)[C@H]2NC(=O)OC(C)(C)C)cc1C, 25-membered ring, Hoveyda-Grubbs II, 2.15 mM, 90.0 °C, 0.58 h) was 41%.
As for `COC(=O)[C@]12CC=CCCC[C@@H](NC(=O)C3CCCOC3)c3cccc(c3)COc3c(C)cc(cc3C)C(=O)NC[C@@H](OC(C)=O)[C@@H](OC(C)=O)[C@H](O1)[C@H](NC(=O)OC(C)(C)C)[C@@H](OC(C)=O)C2` (stereo partly drawn), the ring closure, isolated yield in data set [1] (from C=CCCC[C@@H](NC(=O)C1CCCOC1)c1cccc(COc2c(C)cc(C(=O)NC[C@@H](OC(C)=O)[C@@H](OC(C)=O)[C@@H]3O[C@@](CC=C)(C(=O)OC)C[C@H](OC(C)=O)[C@H]3NC(=O)OC(C)(C)C)cc2C)c1, 24-membered ring, Hoveyda-Grubbs II/quinone, 1.03 mM, 90.0 °C, 24.0 h) was found to be 71%.
Turning to `COC(=O)[C@]12CC=Cc3cccc(c3)[C@@H](NC(=O)C3CCCOC3)CCCCOc3c(C)cc(cc3C)C(=O)NC[C@@H](OC(C)=O)[C@@H](OC(C)=O)[C@H](O1)[C@H](NC(=O)OC(C)(C)C)[C@@H](OC(C)=O)C2` (stereo partly drawn), the ring closure, isolated yield in data set [1] (from C=CC[C@]1(C(=O)OC)C[C@H](OC(C)=O)[C@@H](NC(=O)OC(C)(C)C)[C@H]([C@H](OC(C)=O)[C@@H](CNC(=O)c2cc(C)c(OCCCC[C@H](NC(=O)C3CCCOC3)c3cccc(C=C)c3)c(C)c2)OC(C)=O)O1, 24-membered ring, Hoveyda-Grubbs II/quinone, 1.02 mM, 80.0 °C, 1.0 h) came out at 29%.
In the case of `CC(=O)N[C@H]1[C@H]([C@H](O)[C@H](O)CNC(=O)c2cc(C)c(O)c(C)c2)O[C@@](C/C=C/c2cccc(CNC(=O)c3ccc4[nH]c(C(C)(C)CO)cc4c3)c2)(C(=O)O)C[C@@H]1O` [A-249], the EC50 in data set [2] was determined as 224 nM. In addition, in data set [3] (setting [4]), the “DSF (dTmD)” value amounted to 8.1 °C.
In the case of `CC(=O)N[C@H]1[C@H]([C@H](O)[C@H](O)CNC(=O)c2cc(C)c(O)c(C)c2)O[C@@](CCN2CCOC[C@@]23CCN(C(=O)c2ccccc2)C3)(C(=O)O)C[C@@H]1O` [A-101], the EC50 in data set [2] amounted to 921 nM. In addition, the “DSF (dTmD)” value in data set [3] (setting [5]) was 7.4.
As for `Cc1cc(C(=O)NC[C@@H](O)[C@@H](O)[C@@H]2O[C@@](OC3CCCCC3NC(=O)Cn3cc(-c4ccccc4)nn3)(C(=O)O)C[C@H](O)[C@H]2NC(=O)Cn2cc(C3CCCCC3)nn2)cc(C)c1O` (stereo partly drawn) [A-333], the EC50 in data set [2] worked out at 12200 nM. For the same compound, the “DSF (dTmD)” value in data set [3] (setting [4]) stood at 4.5 °C.
For the compound `CC(=O)N[C@H]1[C@H]([C@H](O)[C@H](O)CNC(=O)c2cc(Br)[nH]n2)O[C@@](CCN2CCOC[C@@]23CCN(C(=O)OC(C)(C)C)C3)(C(=O)O)C[C@@H]1O` [A-133], in data set [2], the EC50 worked out at 46 nM. Moreover, the “DSF (dTmD)” value in data set [3] (setting [5]) was 11.4.
With `CC(=O)N[C@H]1[C@H]([C@H](O)[C@H](O)CNC(=O)c2cc(C)c(O)c(C)c2)O[C@@](CCN2CCCC[C@]23CN(C(=O)OC(C)(C)C)C[C@@H]3CO)(C(=O)O)C[C@@H]1O` [A-028], the EC50 in data set [2] was found to be 159 nM. For the same compound, the “DSF (dTmD)” value in data set [3] (setting [5]) was 8.1.
Turning to `CC(=O)N[C@H]1[C@H]([C@H](O)[C@H](O)CNC(=O)c2ccc(C)c(C)c2)O[C@@](CCN2CCOC[C@@]23CCN(C(=O)OC(C)(C)C)C3)(C(=O)O)C[C@@H]1O` [A-180], the EC50 in data set [2] stood at 74 nM. The “DSF (dTmD)” value in data set [3] (setting [5]) is listed as 10.9.
In the case of `CC(=O)N[C@H]1[C@H]([C@H](O)[C@H](O)CNC(=O)c2ccc3[nH]nnc3c2)O[C@@](CCN2CCOC[C@@]23CCN(C(=O)OC(C)(C)C)C3)(C(=O)O)C[C@@H]1O` [A-178], the EC50 in data set [2] came out at 146 nM. Moreover, in data set [3] (setting [5]), the “DSF (dTmD)” value turned out to be 9.5.
`Cc1ccc(CN(C)C(=O)C2CCCOC2)cc1/C=C/C[C@]1(C(=O)O)C[C@H](O)[C@@H](NC(=O)Cn2cc(C3CCCCC3)nn2)[C@H]([C@H](O)[C@H](O)CNC(=O)c2cc(C)c(O)c(C)c2)O1` (stereo partly drawn) [A-287]: the EC50 in data set [2] came out at 1160 nM. In data set [3] (setting [4]), the “DSF (dTmD)” value came out at 6.0 °C.
The matching figures for `Cc1cc(C(=O)NC[C@@H](O)[C@@H](O)[C@@H]2O[C@@](C/C=C/c3cccc(CNC(=O)C4CCCOC4)c3)(C(=O)O)C[C@H](O)[C@H]2NC(=O)Cn2cc(C3CCCCC3)nn2)cc(C)c1O` (stereo partly drawn) [A-260]: 7940 nM and 4.2 °C.
`CC(=O)N[C@H]1[C@H]([C@H](O)[C@H](O)CNC(=O)c2cnc(O)c(C)c2)O[C@@](CCN2CCOC[C@@]23CCN(C(=O)OC(C)(C)C)C3)(C(=O)O)C[C@@H]1O` [A-189]: in data set [2], the EC50 was found to be 150 nM. Besides, the “DSF (dTmD)” value in data set [3] (setting [5]) turned out to be 9.8.
Turning to `CC(=O)Nc1ccc(C(=O)NC[C@@H](O)[C@@H](O)[C@@H]2O[C@@](CCN3CCOC[C@@]34CCN(C(=O)OC(C)(C)C)C4)(C(=O)O)C[C@H](O)[C@H]2NC(C)=O)cc1` [A-184], the EC50 in data set [2] came to 1090 nM. For the same compound, the “DSF (dTmD)” value in data set [3] (setting [5]) is given as 6.0.
Taken in the same sequence, the figures for `CC(=O)N[C@H]1[C@H]([C@H](O)[C@H](O)CNC(=O)c2cc(C)c(O)c(C)c2)O[C@@](CCN2CCOCC2c2cccnc2)(C(=O)O)C[C@@H]1O` (stereo partly drawn) [A-024] were 7940 nM and 1.1.
Regarding `CC(=O)N[C@H]1[C@H]([C@H](O)[C@H](O)CNC(=O)c2cc(C)c(O)c(C)c2)O[C@@](CCN2CCOC[C@@]23CCN(C(=O)N[C@H](C)c2ccccc2)C3)(C(=O)O)C[C@@H]1O` [A-047], the EC50 in data set [2] worked out at 22 nM. Besides, the “DSF (dTmD)” value in data set [3] (setting [5]) came to 12.9.
Consider `Cc1cc(C(=O)NC[C@@H](O)[C@@H](O)[C@@H]2O[C@@](C/C=C/c3cccc(CNC(=O)c4cccc(Cl)c4)c3)(C(=O)O)C[C@H](O)[C@H]2NC(=O)Cn2cc(C3CCCCC3)nn2)cc(C)c1O` [A-262], for which the EC50 in data set [2] was determined as 6030 nM. Moreover, the “DSF (dTmD)” value in data set [3] (setting [4]) is 1.9 °C.
In the case of `CC(=O)N[C@H]1[C@H]([C@H](O)[C@H](O)CNC(=O)c2cc(C)c(O)c(C)c2)O[C@@](CCN2CC(=O)N(C)C[C@@]23CCN(C(=O)OC(C)(C)C)C3)(C(=O)O)C[C@@H]1O` [A-016], the EC50 in data set [2] is 34 nM. Moreover, the “DSF (dTmD)” value in data set [3] (setting [5]) is reported as 9.7.
For `CC(=O)N[C@H]1[C@H]([C@H](O)[C@H](O)CNC(=O)c2ccc3[nH]cc(C)c3c2)O[C@@](CCN2CCOC[C@@]23CCN(C(=O)OC(C)(C)C)C3)(C(=O)O)C[C@@H]1O` [A-112], the EC50 in data set [2] was found to be 22 nM. Further, the “DSF (dTmD)” value in data set [3] (setting [5]) was 12.5.
For `CC(=O)N[C@H]1[C@H]([C@H](O)[C@H](O)CNC(=O)c2cc(C)c(O)c(C)c2)O[C@@](C/C=C/c2cccc(CNC(=O)C3(C)COC3)c2)(C(=O)O)C[C@@H]1O` [A-244], the EC50 in data set [2] was 9560 nM. For the same compound, the “DSF (dTmD)” value in data set [3] (setting [4]) amounted to 0.8 °C.
On to `CC(=O)N[C@H]1[C@H]([C@H](O)[C@H](O)CNC(=O)c2cc(C)c(O)c(C)c2)O[C@@](CCN2CCOC[C@@]23CCN(C(=O)C2(C)COC2)C3)(C(=O)O)C[C@@H]1O` [A-100], for which the half-maximal effective concentration (EC50) in data set [2] came to 2340 nM. Also, the “DSF (dTmD)” value in data set [3] (setting [5]) is 5.6.
Regarding `CC(=O)N[C@H]1[C@H]([C@H](O)[C@H](O)CNC(=O)c2cc(C)c(O)c(C)c2)O[C@@](C/C=C/c2cccc(CNC(=O)C3CCC(Nc4ncccn4)CC3)c2)(C(=O)O)C[C@@H]1O` (stereo partly drawn) [A-253], in data set [2], the EC50 worked out at 195 nM. Also, the “DSF (dTmD)” value in data set [3] (setting [4]) was 9.6 °C.
For the compound `CC(=O)N[C@H]1[C@H]([C@H](O)[C@H](O)CNC(=O)c2cc(C)c(O)c(C)c2)O[C@@](CCN2CCOC[C@@]23CCN(C(=O)Nc2ccc(C)cc2)C3)(C(=O)O)C[C@@H]1O` [A-053], the EC50 in data set [2] is 147 nM. In addition, the “DSF (dTmD)” value in data set [3] (setting [5]) is 9.2.
Taken in the same sequence, the figures for `CC(=O)N[C@H]1[C@H]([C@H](O)[C@H](O)CNC(=O)c2ccc(-c3ncn[nH]3)cc2)O[C@@](CCN2CCOC[C@@]23CCN(C(=O)OC(C)(C)C)C3)(C(=O)O)C[C@@H]1O` [A-142] were 340 nM and 6.4.

The values above are taken from patent publication US20250313574A1, “SIALIC ACID DERIVATIVES AND METHODS OF USING SAME” (EISAI R&D MANAGEMENT CO., LTD., priority 2022, published 2025).
